Laboratory results: article PMC12698182, “Bardoxolone methyl blocks the efflux of Zn^2+ by targeting hZnT1 to inhibit the proliferation and metastasis of cervical cancer” (Protein & Cell, 2025)
Residue numbers refer to the chain shown, from its start.

Experiments:
hZnT1 [1] = target: T1, hZnT1 (Homo sapiens, UniProt Q9Y6M5); assay: biolayer interferometry (BLI); details: read-out: binding affinity
T1 construct: gene SLC30A1; homodimer (ECD 271-312, CTD 345-507 visible); tags and borders only in supplement; transport assay in HEK-293F cells
T1 sequence (Q9Y6M5 1-507): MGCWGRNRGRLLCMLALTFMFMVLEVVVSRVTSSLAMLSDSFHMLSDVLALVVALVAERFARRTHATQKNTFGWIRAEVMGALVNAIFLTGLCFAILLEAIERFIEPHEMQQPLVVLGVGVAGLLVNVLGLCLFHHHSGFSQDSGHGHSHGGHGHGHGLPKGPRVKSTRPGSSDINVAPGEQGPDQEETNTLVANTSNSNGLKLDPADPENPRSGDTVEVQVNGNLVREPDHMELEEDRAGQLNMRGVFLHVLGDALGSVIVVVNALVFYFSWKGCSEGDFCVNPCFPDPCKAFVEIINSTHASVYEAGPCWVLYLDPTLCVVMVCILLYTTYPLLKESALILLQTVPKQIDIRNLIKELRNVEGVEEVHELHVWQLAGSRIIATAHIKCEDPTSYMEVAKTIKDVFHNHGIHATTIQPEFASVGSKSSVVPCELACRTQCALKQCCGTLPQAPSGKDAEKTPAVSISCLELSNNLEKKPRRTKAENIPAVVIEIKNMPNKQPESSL

hZnT1 [2] = target: T2, hZnT1 (Homo sapiens, UniProt Q9Y6M5, I96A); assay: biolayer interferometry (BLI); details: read-out: binding affinity
T2 construct: gene SLC30A1; homodimer (ECD 271-312, CTD 345-507 visible); tags and borders only in supplement; transport assay in HEK-293F cells
T2 sequence (Q9Y6M5 1-507 I96A): T1 sequence (Q9Y6M5 1-507) with I96A

hZnT1 [3] = target: T3, hZnT1 (Homo sapiens, UniProt Q9Y6M5, G258A); assay: biolayer interferometry (BLI); assay type: binding
T3 construct: gene SLC30A1; homodimer (ECD 271-312, CTD 345-507 visible); tags and borders only in supplement; transport assay in HEK-293F cells
T3 sequence (Q9Y6M5 1-507 G258A): T1 sequence (Q9Y6M5 1-507) with G258A

hZnT1 [4] = target: T1, hZnT1; assay: FluoZin-3 fluorescence Zn2+ transport assay in HEK-293F cells; assay type: cell-based

- Kd (hZnT1 [1]): 2.72 µM
- Kd (hZnT1 [2]): 58.4 µM
- IC50 (hZnT1 [4]): 18 ± 0.92 µM
Structure (SMILES): COC(=O)[C@]12CCC(C)(C)C[C@H]1[C@H]1C(=O)C=C3[C@@]4(C)C=C(C#N)C(=O)C(C)(C)[C@@H]4CC[C@@]3(C)[C@]1(C)CC2 [Bardoxolone methyl]
- binding affinity (hZnT1 [3]): the mutation of G258A directly led to the affinity to be completely undetectable
